Experimental data as given in US12076306B2, “Prodrugs of fumarates and their use in treating various diseases” (Alkermes Pharma Ireland Limited, priority 2013, dated 2024).
Where a name gives a salt, the structure may show the parent alone.

Assay: Aqueous chemical stability, 100 mM phosphate buffer, HPLC (Table 3)
Assay type: physicochemical
Details: buffer phosphate (100 mM), 37° C., half-lives >360 min estimated from initial slope
Description: Stock solutions of the compounds in acetonitrile or acetonitrile/methanol were prepared at 20 mg/mL and 20 μL, spiked into 3 mL of buffer phosphate (100 mM) and incubated at 37° C. Aliquots (50 μL) were sampled at different time points and diluted 20 fold with ammonium formate (pH 3.5)/acetonitrile. The diluted samples were analyzed by HPLC. The peak areas corresponding to the compounds were plotted against time and the data were fitted to a first-order mono-exponential decay where the rate constant and the half-life were determined (Table 3).

Row | Compound | pH 8 (t ½, min)
1 | COC(=O)/C=C/C(=O)OCCN(CC(=O)O)CC(=O)O [Compound 1, (E)-2,2′-((2-((4-methoxy-4-oxobut-2-enoyl)oxy)ethyl)azanediyl)diacetic acid hydrochloride] | 15 min
2 | COC(=O)/C=C/C(=O)OCC[N+](C)(C)C [Compound 4, (E)-2-((4-methoxy-4-oxobut-2-enoyl)oxy)-N,N,N-trimethylethanaminium iodide] | 45 min
3 | COC(=O)/C=C/C(=O)OCCN1CCC(F)(F)CC1 [Compound 5, 2-(4,4-difluoropiperidin-1-yl)ethyl methyl fumarate hydrochloride] | 24 min
4 | COC(=O)/C=C/C(=O)OC(C)CN(C)C (centres unmarked) [Compound 6, 1-(dimethylamino)propan-2-yl methyl fumarate hydrochloride] | 2.0 min
5 | COC(=O)/C=C/C(=O)OCCN1CCSCC1 [Compound 7, Methyl (2-thiomorpholinoethyl) fumarate hydrochloride] | 26.0 min
6 | COC(=O)/C=C/C(=O)OCCNc1ccccc1 [Compound 8, Methyl (2-(phenylamino)ethyl) fumarate hydrochloride] | 36.0 min
7 | COC(=O)/C=C/C(=O)OCC(C)(C)N(C)C [Compound 9, 2-(dimethylamino)-2-methylpropyl methyl fumarate hydrochloride] | 7.0 min
8 | COC(=O)/C=C/C(=O)OCCS(C)(=O)=O [Compound 10, Methyl (2-(methylsulfonyl)ethyl) fumarate] | 67.0 min
9 | COC(=O)/C=C/C(=O)OCCN1CCS(=O)(=O)CC1 [Compound 11, 2-(1,1-dioxidothiomorpholino)ethyl methyl fumarate hydrochloride] | >240 min
10 | COC(=O)/C=C/C(=O)OCCN1CCCCC1 [Compound 15, Methyl (2-(piperidin-1-yl)ethyl) fumarate hydrochloride] | 3.0 min
11 | COC(=O)/C=C/C(=O)OCCN1CCOCC1 [Compound 16, Methyl (2-morpholinoethyl) fumarate hydrochloride] | 20.0 min
12 | COC(=O)/C=C/C(=O)OCCN1CCC2(CC1)OCCO2 [Compound 17, 2-(1,4-dioxa-8-azaspiro[4.5]decan-8-yl)ethyl methyl fumarate hydrochloride] | 11.0 min
13 | COC(=O)/C=C/C(=O)OCCN1CCCC1 [Compound 18, Methyl (2-(pyrrolidin-1-yl)ethyl) fumarate hydrochloride] | 5.0 min
14 | COC(=O)/C=C/C(=O)OCCN(C)C [Compound 19, 2-(dimethylamino)ethyl methyl fumarate hydrochloride] | 6.0 min
15 | CCN(CC)CCOC(=O)/C=C/C(=O)OC [Compound 20, 2-(diethylamino)ethyl methyl fumarate hydrochloride] | 5.0 min
16 | CCN(CC)C(=O)COC(=O)/C=C/C(=O)OC [Reference Compound A, 2-(diethylamino)-2-oxoethyl methyl fumarate, reference compound] | 120 min

Assay: Aqueous chemical stability, 50 mM phosphate buffer pH 8, HPLC-UV (Table 4)
Assay type: physicochemical
Details: 50 mM buffer phosphate pH 8, 37° C., HPLC UV 211 nm
Description: Stock solutions of the compounds in acetonitrile or acetonitrile/MeOH were prepared at 0.05M. A 0.010 mL aliquot of the stock was spiked into 1 mL of 50 mM buffer phosphate pH 8 and incubated at 37° C. Typically, aliquots (0.010 mL) were sampled at different time points and immediately injected in the HPLC with UV detection (211 nm). The peak areas corresponding to the compounds were plotted against time and the data were fitted to a first-order mono-exponential decay where the rate constant and the half-life were determined from the slope (Table 4).

Row | Compound | pH 8 (t ½, min)
17 | COC(=O)/C=C/C(=O)OCCN(CC(=O)O)CC(=O)O [Compound 1, (E)-2,2′-((2-((4-methoxy-4-oxobut-2-enoyl)oxy)ethyl)azanediyl)diacetic acid hydrochloride] | 15 min
18 | COC(=O)/C=C/C(=O)OCC[N+](C)(C)C [Compound 4, (E)-2-((4-methoxy-4-oxobut-2-enoyl)oxy)-N,N,N-trimethylethanaminium iodide] | 30 min
19 | COC(=O)/C=C/C(=O)OCCN1CCC(F)(F)CC1 [Compound 5, 2-(4,4-difluoropiperidin-1-yl)ethyl methyl fumarate hydrochloride] | 24 min
20 | COC(=O)/C=C/C(=O)OC(C)CN(C)C (centres unmarked) [Compound 6, 1-(dimethylamino)propan-2-yl methyl fumarate hydrochloride] | 2 min
21 | COC(=O)/C=C/C(=O)OCCN(C)C [Compound 19, 2-(dimethylamino)ethyl methyl fumarate hydrochloride] | 117 min
22 | COC(=O)/C=C/C(=O)OCCN1C(=O)C2CC2C1=O (centres unmarked) [Compound 22, 2-(2,4-Dioxo-3-azabicyclo[3.1.0]hexan-3-yl)ethyl methyl fumarate] | 144 min
23 | COC(=O)/C=C/C(=O)OCCN1C(=O)[C@@H](C)[C@@H](C)C1=O [Compound 23, 2-((3R,4S)-3,4-Dimethyl-2,5-dioxopyrrolidin-1-yl)ethyl methyl fumarate] | 186 min
24 | COC(=O)/C=C/C(=O)OCC[N+]1([O-])CCOCC1 [Compound 26, (E)-4-(2-((4-methoxy-4-oxobut-2-enoyl)oxy)ethyl)morpholine 4-oxide] | 129 min
25 | COC(=O)/C=C/C(=O)OCCN1C(=O)COCC1=O [Compound 27, 2-(3,5-dioxomorpholino)ethyl methyl fumarate] | 37 min
26 | COC(=O)/C=C/C(=O)OCCN1CCOC(C)(C)C1 [Compound 28, 2-(2,2-dimethylmorpholino)ethyl methyl fumarate hydrochloride] | <10 min
27 | COC(=O)/C=C/C(=O)OCCNC(=O)OC(C)(C)C [Compound 48, 2-((tert-butoxycarbonyl)amino)ethyl methyl fumarate] | 220 min

The next lines start with the values.

Row | pH 8 (t ½, min) | Compound
28 | <10 min | COC(=O)/C=C/C(=O)OCCN1CC(C)OC(C)C1 (centres unmarked) [Compound 29, 2-(2,6-dimethylmorpholino)ethyl methyl fumarate hydrochloride]
29 | 229 min | COC(=O)/C=C/C(=O)OCCN1CCOCC1=O [Compound 30, Methyl (2-(3-oxomorpholino)ethyl) fumarate]
30 | 26 min | COC(=O)/C=C/C(=O)OCCN1CCOC(=O)C1 [Compound 31, Methyl (2-(2-oxomorpholino)ethyl) fumarate hydrochloride]
31 | 13 min | COC(=O)/C=C/C(=O)OCCN1CC2CCC(C1)O2 [Compound 32, 2-(8-Oxa-3-azabicyclo[3.2.1]octan-3-yl)ethyl methyl fumarate hydrochloride]
32 | 115 min | COC(=O)/C=C/C(=O)OCCN1CCOC(CN(C)C)C1 (centres unmarked) [Compound 33, 2-(2-((Dimethylamino)methyl)morpholino)ethyl methyl fumarate hydrochloride]
33 | 182 min | COC(=O)/C=C/C(=O)OCCN1C(=O)CC(C)(C)C1=O [Compound 37, 2-(3,3-Dimethyl-2,5-dioxopyrrolidin-1-yl)ethyl methyl fumarate]
34 | 201 min | COC(=O)/C=C/C(=O)OCCN1CCCC1=O [Compound 38, Methyl (2-(2-oxopyrrolidin-1-yl)ethyl) fumarate]
35 | 183 min | COC(=O)/C=C/C(=O)OCCN1CCOC1=O [Compound 39, Methyl (2-(2-oxooxazolidin-3-yl)ethyl) fumarate]
36 | 203 min | COC(=O)/C=C/C(=O)OCCN1C(=O)NC(C)(C)C1=O [Compound 40, 2-(4,4-Dimethyl-2,5-dioxoimidazolidin-1-yl)ethyl methyl fumarate]
37 | 158 min | CCC(=O)N(CCOC(=O)/C=C/C(=O)OC)C(=O)CC [Compound 42, Methyl (2-(N-propionylpropionamido)ethyl) fumarate]
38 | 177.5 min | COC(=O)/C=C/C(=O)OCCNC(C)=O [Compound 43, 2-Acetamidoethyl methyl fumarate]
39 | 145 min | COC(=O)/C=C/C(=O)OCCN(C(C)=O)C(C)=O [Compound 44, 2-(N-Acetylacetamido)ethyl methyl fumarate]
40 | 1010 min | COC(=O)/C=C/C12COC(C)(CO1)CO2 [Compound 130, (E)-Methyl 3-(4-methyl-2,5,7-trioxabicyclo[2.2.2]octan-1-yl)acrylate]
41 | 96 min | C#CCOC(=O)/C=C/C(=O)OC [Compound 131, Methyl prop-2-yn-1-yl fumarate]
42 | 246 min | COC(=O)/C=C/C(=O)OCCCN1C(=O)CCC1=O [Compound 133, 3-(2,5-Dioxopyrrolidin-1-yl)propyl methyl fumarate]

Assay: Physical stability in crystalline form by thermogravimetric analysis (TGA)
Assay type: physicochemical
Details: DMF loss in less than 4 hours
Description: The physical stability of compounds of the present invention and DMF were measured via thermogravimetric analysis (TGA).

Row | Compound | weight loss at 60° C. vs time
43 | COC(=O)/C=C/C(=O)OCCN1C(=O)CCC1=O [Compound 14, 2-(2,5-dioxopyrrolidin-1-yl)ethyl methyl fumarate] | no change
44 | COC(=O)/C=C/C(=O)OC [DMF, Dimethyl fumarate, reference compound] | ~100%
